pIC50: −log10 of the molar value.
Tested on: 885512-296-R-J2-PDC complex spheroid viability
Experiment: Anticancer human tumor 885512-296-R-J2-PDC patient-derived breast carcinoma cell line growth inhibition
Settings: for pIC50: curve of first compound; for viability, T/C: stronger effect = lower value
Source text: Multicellular complex tumor spheroid response to LSD1 Inhibitor Iadademstat in combination with a variety of drugs and investigational agents in selected tumor cell lines
The current study was undertaken to assess response to LSD1 inhibitors in combination with standard-of-care drugs and investigational agents in solid tumor complex spheroid models as well as in the K-562 leukemia. Complex spheroids include a stromal component modeled by human endothelial cells (HUVEC) and fibroblasts modeled by human mesenchymal stem cells (MSCs). The concentration ranges selected for each drug and investigational agent were based upon clinically achievable concentrations if the clinical Cmax of the agent was known.
Compounds. The drugs and investigational agents used in this study are listed on Table 1. All of the agents used, including staurosporine (NSC755774) and gemcitabine (NSC613327), were obtained from the Developmental Therapeutics Program, NCI. FDA-approved anticancer drugs are available from the NCI at http://dtp.nci.nih.gov/branches/dscb/oncology_drugset_explanation.html. Drugs and investigational agents were >95% pure by proton nuclear magnetic resonance (NMR) and liquid chromatography/mass spectrometry (LC/MS). Stock solutions were prepared at 400x in DMSO, stored at -70 degrees C, and diluted in fresh medium prior to their use. The final concentration of DMSO in cell culture wells never exceeded 0.25% (v/v). The FDA-approved anticancer drug set is available from the Developmental Therapeutics Program at https://dtp.cancer.gov/organization/dscb/obtaining/available_plates.htm. All drugs and investigational agents were tested over a range starting from a high concentration at or near the clinical Cmax and decreasing in half-log increments. If the clinical Cmax for an agent had not been determined, the highest concentration tested was 10 microM.
Cell Lines. The patient-derived cancer cell (PDC) lines: 292921-168-R-J2-PDC, K24384-001-R-PDC, and 521955-158-R2-J5-PDC pancreatic carcinomas, 556581-035-R-J1 ovarian carcinoma, 324938-238-R-J1-PDC, 855422-203-R-J1-PDC and 883617-216-R-J1-PDC urothelial bladder carcinomas, 743489-274-T-PDC renal cell carcinoma, 138582-R-J1 Merkel cell tumor, K60290-347-R-J1 and K57222-313-R-J1-PDC glioblastomas, 653999-131-R-J2-PDC, LG0703-F948-PDC, and 349418-098-R-PDC non-small cell lung carcinomas, 885512-296-R-J2-PDC, 171881-019-R-J1-PDC breast carcinomas and 186277-243-T-J2-PDC and 233499-124-R-J2-PDC colon carcinomas were obtained from the NCI Patient-Derived Models Repository (PDMR, https://pdmr.cancer.gov). The established cell lines NCI/ADR-RES (RRID:CVCL_14520 and OVCAR-5 (RRID:CVCL_1628) ovarian carcinomas, 786-O (RRID:CVCL_1051) and A498 (RRID:CVCL_A498) renal cell carcinoma, NCI-H211 (ATCC, cat. CRL-5824; RRID:CVCL_1529), NCI-H196 (ATCC, cat. CRL-5823, RRID:CVCL_1509), SW 1271 (ATCC, cat. CRL-2177, RRID:CVCL_1716) and NCI-H1876 (ATCC, cat. CRL-5902, RRID:CVCL_1503) small cell lung carcinomas, MDA-MB-231 (RRID:CVCL_0062) and MDA-MB-468 (RRID:CVCL_0419)breast carcinomas (10-12). Pooled donor human umbilical vein endothelial cells (HUVEC, Lonza, cat. CC-2519) and human mesenchymal stem cells (hMSC, Lonza, cat. PT-2501) were purchased from Lonza (Walkersville, MD).
Cell Culture. All cells were maintained in an incubator at 37 degrees C and 5% CO2 with 95% humidity. The PDC lines were cultured according to standard operating procedures established by the NCI PDMR (https://pdmr.cancer.gov). Briefly all PDCs were thawed and cultured in Matrigel-coated flasks prepared with a working solution of 1X Ham's F-12 nutrient mix, without supplementation (Invitrogen, Waltham, MA, cat. 11765054), 100 U/mL penicillin-streptomycin (Invitrogen, cat. 15140122), and 2.5% Matrigel (Corning Inc., Corning, NY, cat. 354248) for the first three passages. […]

[1] = second compound 0.1 µM, first compound 0.00316 µM
[2] = second compound 0.1 µM, first compound 0.01 µM
[3] = second compound 0.1 µM, first compound 0.0316 µM
[4] = second compound 0.1 µM, first compound 0.1 µM
[5] = second compound 0.316 µM, first compound 0.00316 µM
[6] = second compound 0.316 µM, first compound 0.01 µM
[7] = second compound 0.316 µM, first compound 0.0316 µM
[8] = second compound 0.316 µM, first compound 0.1 µM
[9] = second compound 1 µM, first compound 0.00316 µM
[10] = second compound 1 µM, first compound 0.01 µM
[11] = second compound 1 µM, first compound 0.0316 µM
[12] = second compound 1 µM, first compound 0.1 µM
[13] = second compound 3.16 µM, first compound 0.00316 µM
[14] = second compound 3.16 µM, first compound 0.01 µM
[15] = second compound 3.16 µM, first compound 0.0316 µM
[16] = second compound 3.16 µM, first compound 0.1 µM
[17] = second compound 10 µM, first compound 0.00316 µM
[18] = second compound 10 µM, first compound 0.01 µM
[19] = second compound 10 µM, first compound 0.0316 µM
[20] = second compound 10 µM, first compound 0.1 µM
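Further: spheroids exposed to agents for 7 days before viability read.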

CC[C@@]1(O)C(=O)OCc2c1cc1n(c2=O)Cc2cc3c(CN(C)C)c(O)ccc3nc2-1 + NC1CC1c1ccc(-c2cccc(O)c2)cc1
pIC50 (second compound 0.1 µM): 9.03
pIC50 (second compound 0.316 µM): 8.97
pIC50 (second compound 1 µM): 9.09
pIC50 (second compound 3.16 µM): 9.10
pIC50 (second compound 10 µM): 9.23
viability, T/C (second compound 0.1 µM, first compound 0.000316 µM): 92.2%
viability, T/C (second compound 0.1 µM, first compound 0.001 µM): 47.2%
viability, T/C [1]: 4.42%
viability, T/C [2]: 3.26%
viability, T/C [3]: 2.54%
viability, T/C [4]: 1.68%
viability, T/C (second compound 0.316 µM, first compound 0.000316 µM): 97.2%
viability, T/C (second compound 0.316 µM, first compound 0.001 µM): 52.5%
viability, T/C [5]: 4.34%
viability, T/C [6]: 2.93%
viability, T/C [7]: 1.9%
viability, T/C [8]: 1.67%
viability, T/C (second compound 1 µM, first compound 0.000316 µM): 92.2%
viability, T/C (second compound 1 µM, first compound 0.001 µM): 40.2%
viability, T/C [9]: 5.01%
viability, T/C [10]: 3.22%
viability, T/C [11]: 2.56%
viability, T/C [12]: 1.7%
viability, T/C (second compound 3.16 µM, first compound 0.000316 µM): 91.8%
viability, T/C (second compound 3.16 µM, first compound 0.001 µM): 39.3%
viability, T/C [13]: 4.57%
viability, T/C [14]: 2.89%
viability, T/C [15]: 1.84%
viability, T/C [16]: 1.56%
viability, T/C (second compound 10 µM, first compound 0.000316 µM): 72.7%
viability, T/C (second compound 10 µM, first compound 0.001 µM): 31.1%
viability, T/C [17]: 3.84%
viability, T/C [18]: 3.11%
viability, T/C [19]: 2.42%
viability, T/C [20]: 1.6%

COc1cc(C2c3cc4c(cc3C(OC3OC5COC(C)OC5C(O)C3O)C3COC(=O)C23)OCO4)cc(OC)c1O (stereo not given) + NC1CC1c1ccc(-c2cccc(O)c2)cc1
pIC50 (second compound 0.1 µM): 7.29
pIC50 (second compound 0.316 µM): 7.32
pIC50 (second compound 1 µM): 7.33
pIC50 (second compound 3.16 µM): 7.45
pIC50 (second compound 10 µM): 7.72
viability, T/C (second compound 0.1 µM, first compound 0.00949 µM): 115%
viability, T/C (second compound 0.1 µM, first compound 0.03 µM): 78.2%
viability, T/C (second compound 0.1 µM, first compound 0.0949 µM): 18.4%
viability, T/C (second compound 0.1 µM, first compound 0.3 µM): 5.27%
viability, T/C (second compound 0.1 µM, first compound 0.949 µM): 3.81%
viability, T/C (second compound 0.1 µM, first compound 3 µM): 3.41%
viability, T/C (second compound 0.316 µM, first compound 0.00949 µM): 111%
viability, T/C (second compound 0.316 µM, first compound 0.03 µM): 73.5%
viability, T/C (second compound 0.316 µM, first compound 0.0949 µM): 17%
viability, T/C (second compound 0.316 µM, first compound 0.3 µM): 4.71%
viability, T/C (second compound 0.316 µM, first compound 0.949 µM): 3.36%
viability, T/C (second compound 0.316 µM, first compound 3 µM): 2.8%
viability, T/C (second compound 1 µM, first compound 0.00949 µM): 113%
viability, T/C (second compound 1 µM, first compound 0.03 µM): 71%
viability, T/C (second compound 1 µM, first compound 0.0949 µM): 16.5%
viability, T/C (second compound 1 µM, first compound 0.3 µM): 5.06%
viability, T/C (second compound 1 µM, first compound 0.949 µM): 4%
viability, T/C (second compound 1 µM, first compound 3 µM): 3.54%
viability, T/C (second compound 3.16 µM, first compound 0.00949 µM): 100%
viability, T/C (second compound 3.16 µM, first compound 0.03 µM): 56%
viability, T/C (second compound 3.16 µM, first compound 0.0949 µM): 17.2%
viability, T/C (second compound 3.16 µM, first compound 0.3 µM): 3.77%
viability, T/C (second compound 3.16 µM, first compound 0.949 µM): 3.77%
viability, T/C (second compound 3.16 µM, first compound 3 µM): 2.6%
viability, T/C (second compound 10 µM, first compound 0.00949 µM): 68.4%
viability, T/C (second compound 10 µM, first compound 0.03 µM): 37.9%
viability, T/C (second compound 10 µM, first compound 0.0949 µM): 9.86%
viability, T/C (second compound 10 µM, first compound 0.3 µM): 3.55%
viability, T/C (second compound 10 µM, first compound 0.949 µM): 3.7%
viability, T/C (second compound 10 µM, first compound 3 µM): 3.37%

Nc1ncn(C2CC(O)C(CO)O2)c(=O)n1 (stereo not given) + NC1CC1c1ccc(-c2cccc(O)c2)cc1
pIC50 (second compound 0.1 µM): 7.11
pIC50 (second compound 0.316 µM): 7.14
pIC50 (second compound 1 µM): 7.06
pIC50 (second compound 3.16 µM): 7.14
pIC50 (second compound 10 µM): 7.33
viability, T/C [1]: 116%
viability, T/C [2]: 106%
viability, T/C [3]: 79%
viability, T/C [4]: 41.6%
viability, T/C (second compound 0.1 µM, first compound 0.316 µM): 21.4%
viability, T/C (second compound 0.1 µM, first compound 1 µM): 13.3%
viability, T/C [5]: 106%
viability, T/C [6]: 112%
viability, T/C [7]: 70.5%
viability, T/C [8]: 43.1%
viability, T/C (second compound 0.316 µM, first compound 0.316 µM): 23.4%
viability, T/C (second compound 0.316 µM, first compound 1 µM): 15.9%
viability, T/C [9]: 107%
viability, T/C [10]: 99.4%
viability, T/C [11]: 81.2%
viability, T/C [12]: 44.5%
viability, T/C (second compound 1 µM, first compound 0.316 µM): 22.9%
viability, T/C (second compound 1 µM, first compound 1 µM): 13.4%
viability, T/C [13]: 95.5%
viability, T/C [14]: 103%
viability, T/C [15]: 73.1%
viability, T/C [16]: 40.6%
viability, T/C (second compound 3.16 µM, first compound 0.316 µM): 21.7%
viability, T/C (second compound 3.16 µM, first compound 1 µM): 13.4%
viability, T/C [17]: 72%
viability, T/C [18]: 69.5%
viability, T/C [19]: 57.5%
viability, T/C [20]: 34.6%
viability, T/C (second compound 10 µM, first compound 0.316 µM): 18.3%
viability, T/C (second compound 10 µM, first compound 1 µM): 11.4%

Reference: PubChem BioAssay AID1918946 (Molecular Pharmacology Branch, DTP, NCI, 2023)
